Laboratory results from PubChem BioAssay (NCI).
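Cells were grown in 96-well plates and exposed to each compound for 48 hours at five concentrations; endpoints were interpolated linearly between bracketing concentrations, or set to the highest concentration if not reached. Abbreviation: GI50, concentration required for 50% inhibition of growth. TGI: concentration producing complete growth inhibition.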

Legend:
Assay in all cases: growth of human tumour cells (NCI), 48 h
TK-10 renal = system: TK-10 renal
SW-620 colon = system: SW-620 colon
SNB-75 CNS = system: SNB-75 CNS
CAKI-1 renal = system: CAKI-1 renal
HCC-2998 colon = system: HCC-2998 colon
SF-539 CNS = system: SF-539 CNS
CCRF-CEM leukemia = system: CCRF-CEM leukemia
K-562 leukemia = system: K-562 leukemia
A498 renal = system: A498 renal
UO-31 renal = system: UO-31 renal
T-47D breast = system: T-47D breast
NCI-H23 lung = system: NCI-H23 lung
786-0 renal = system: 786-0 renal
HL-60(TB) leukemia = system: HL-60(TB) leukemia
ACHN renal = system: ACHN renal
MOLT-4 leukemia = system: MOLT-4 leukemia
SK-MEL-2 melanoma = system: SK-MEL-2 melanoma
SNB-19 CNS = system: SNB-19 CNS
MCF7 breast = system: MCF7 breast
SK-MEL-5 melanoma = system: SK-MEL-5 melanoma
BT-549 breast = system: BT-549 breast
NCI-H226 lung = system: NCI-H226 lung
SR leukemia = system: SR leukemia
COLO 205 colon = system: COLO 205 colon
HOP-62 NSCLC = system: HOP-62 NSCLC
MDA-MB-231 breast = system: MDA-MB-231 breast
HOP-92 NSCLC = system: HOP-92 NSCLC
NCI-H460 lung = system: NCI-H460 lung
PC-3 prostate = system: PC-3 prostate
HCT-15 colon = system: HCT-15 colon
OVCAR-8 ovarian = system: OVCAR-8 ovarian
HS 578T breast = system: HS 578T breast
NCI-H522 lung = system: NCI-H522 lung
OVCAR-5 ovarian = system: OVCAR-5 ovarian
EKVX NSCLC = system: EKVX NSCLC
DU-145 prostate = system: DU-145 prostate
SF-295 CNS = system: SF-295 CNS
MDA-MB-435 = system: MDA-MB-435
SN12C renal = system: SN12C renal
OVCAR-4 ovarian = system: OVCAR-4 ovarian
HT29 colon = system: HT29 colon
SK-OV-3 ovarian = system: SK-OV-3 ovarian
SF-268 CNS = system: SF-268 CNS
UACC-62 melanoma = system: UACC-62 melanoma
SK-MEL-28 melanoma = system: SK-MEL-28 melanoma
M14 melanoma = system: M14 melanoma
LOX IMVI melanoma = system: LOX IMVI melanoma
KM12 colon = system: KM12 colon
IGROV1 ovarian = system: IGROV1 ovarian
MALME-3M melanoma = system: MALME-3M melanoma
U251 CNS = system: U251 CNS
NCI/ADR-RES ovarian = system: NCI/ADR-RES ovarian
UACC-257 melanoma = system: UACC-257 melanoma
OVCAR-3 ovarian = system: OVCAR-3 ovarian
HCT-116 colon = system: HCT-116 colon

COc1cc(/C=C/C(=O)c2c(C)n([O-])c3cc(C)c(C)cc3[n+]2=O)cc(OC)c1OC
GI50 (TK-10 renal): 14.8 µM | TGI (TK-10 renal): 31.2 µM | GI50 (SW-620 colon): 13.6 µM | TGI (SW-620 colon): 40.7 µM | GI50 (SNB-75 CNS): 19.8 µM | TGI (SNB-75 CNS): 41.3 µM | GI50 (CAKI-1 renal): 10.8 µM | TGI (CAKI-1 renal): 29.6 µM | GI50 (HCC-2998 colon): 14.2 µM | TGI (HCC-2998 colon): 32.6 µM | GI50 (SF-539 CNS): 14.9 µM | TGI (SF-539 CNS): 31.6 µM | GI50 (CCRF-CEM leukemia): 5.68 µM | TGI (CCRF-CEM leukemia): > 100 µM | GI50 (K-562 leukemia): 18.7 µM | TGI (K-562 leukemia): > 100 µM | GI50 (A498 renal): 12.1 µM | TGI (A498 renal): 37.7 µM | GI50 (UO-31 renal): 15.4 µM | TGI (UO-31 renal): 32.3 µM | GI50 (T-47D breast): 20.5 µM | TGI (T-47D breast): 73.7 µM | GI50 (NCI-H23 lung): 16.2 µM | TGI (NCI-H23 lung): 41.9 µM | GI50 (786-0 renal): 19.2 µM | TGI (786-0 renal): 46.1 µM | GI50 (HL-60(TB) leukemia): 12.1 µM | TGI (HL-60(TB) leukemia): 61.7 µM | GI50 (ACHN renal): 13.9 µM | TGI (ACHN renal): 27.9 µM | GI50 (MOLT-4 leukemia): 6.77 µM | TGI (MOLT-4 leukemia): > 100 µM | GI50 (SK-MEL-2 melanoma): 16.4 µM | TGI (SK-MEL-2 melanoma): 32.9 µM | GI50 (SNB-19 CNS): 16.9 µM | TGI (SNB-19 CNS): 39.9 µM | GI50 (MCF7 breast): 9.62 µM | TGI (MCF7 breast): 25.1 µM | GI50 (SK-MEL-5 melanoma): 13.9 µM | TGI (SK-MEL-5 melanoma): 34 µM | GI50 (BT-549 breast): 11.8 µM | TGI (BT-549 breast): 30.8 µM | GI50 (NCI-H226 lung): 21.6 µM | TGI (NCI-H226 lung): 55.5 µM | GI50 (SR leukemia): 13.4 µM | TGI (SR leukemia): > 100 µM | GI50 (COLO 205 colon): 20.7 µM | TGI (COLO 205 colon): 67.4 µM | GI50 (HOP-62 NSCLC): 20.2 µM | TGI (HOP-62 NSCLC): 58.2 µM | GI50 (MDA-MB-231 breast): 17 µM | TGI (MDA-MB-231 breast): 44.7 µM | GI50 (HOP-92 NSCLC): 18.2 µM | TGI (HOP-92 NSCLC): 42.5 µM | GI50 (NCI-H460 lung): 10.9 µM | TGI (NCI-H460 lung): 26.3 µM | GI50 (PC-3 prostate): 14.2 µM | TGI (PC-3 prostate): 38.5 µM | GI50 (HCT-15 colon): 10.3 µM | TGI (HCT-15 colon): 25.6 µM | GI50 (OVCAR-8 ovarian): 23.6 µM | TGI (OVCAR-8 ovarian): 71.8 µM | GI50 (HS 578T breast): 19.9 µM | TGI (HS 578T breast): 54.2 µM | GI50 (NCI-H522 lung): 10.9 µM | TGI (NCI-H522 lung): 28.9 µM | GI50 (OVCAR-5 ovarian): 17.6 µM | TGI (OVCAR-5 ovarian): 47.1 µM | GI50 (EKVX NSCLC): 18 µM | TGI (EKVX NSCLC): 42.1 µM | GI50 (DU-145 prostate): 13.1 µM | TGI (DU-145 prostate): 30.8 µM | GI50 (SF-295 CNS): 13.2 µM | TGI (SF-295 CNS): 34.8 µM | GI50 (MDA-MB-435): 20.4 µM | TGI (MDA-MB-435): > 100 µM | GI50 (SN12C renal): 17.5 µM | TGI (SN12C renal): 42.7 µM | GI50 (OVCAR-4 ovarian): 16.5 µM | TGI (OVCAR-4 ovarian): 48 µM | GI50 (HT29 colon): 18.6 µM | TGI (HT29 colon): 34.7 µM | GI50 (SK-OV-3 ovarian): 32.4 µM | TGI (SK-OV-3 ovarian): 91.9 µM | GI50 (SF-268 CNS): 12.5 µM | TGI (SF-268 CNS): 32.3 µM | GI50 (UACC-62 melanoma): 15.5 µM | TGI (UACC-62 melanoma): 37.9 µM | GI50 (SK-MEL-28 melanoma): 19 µM | TGI (SK-MEL-28 melanoma): 46.7 µM | GI50 (M14 melanoma): 16.1 µM | TGI (M14 melanoma): 60.2 µM | GI50 (LOX IMVI melanoma): 11.9 µM | TGI (LOX IMVI melanoma): 29.2 µM | GI50 (KM12 colon): 13.1 µM | TGI (KM12 colon): 32.6 µM | GI50 (IGROV1 ovarian): 12.8 µM | TGI (IGROV1 ovarian): 29.4 µM | GI50 (MALME-3M melanoma): 19.6 µM | TGI (MALME-3M melanoma): 41.1 µM | GI50 (U251 CNS): 12 µM | TGI (U251 CNS): 25.8 µM | GI50 (NCI/ADR-RES ovarian): 23 µM | TGI (NCI/ADR-RES ovarian): 56.6 µM | GI50 (UACC-257 melanoma): 16.7 µM | TGI (UACC-257 melanoma): 48.8 µM | GI50 (OVCAR-3 ovarian): 16.8 µM | TGI (OVCAR-3 ovarian): 41.6 µM | GI50 (HCT-116 colon): 8.08 µM | TGI (HCT-116 colon): 38.3 µM
